Laboratory results taken from patent publication US20200216417A1, “INHIBITORS OF FIBROBLAST ACTIVATION PROTEIN” (Praxis Biotech LLC, priority 2019, published 2020).
Read-outs that look alike come from different tables or passages of the source.

What was measured:
[1] = target: T1, recombinant human DPP9 (rhDPP9) (Homo sapiens, UniProt Q86TI2); assay: DPP9 enzymatic activity assay, 40 ng rhDPP9, HEPES buffer; format: biochemical; details: Table 3A
T1 construct: purchased R&S system / R&D systems (both sic) 5419-SE

[2] = target: T2, recombinant human FAPα (rhFAPα) (Homo sapiens, UniProt Q12884); assay: FAPα enzymatic exopeptidase (dipeptidase) activity assay, Z-Gly-Pro-AMC; format: biochemical
T2 construct: purchased R&S system (so in the source)
T2 sequence (Q12884 1-760): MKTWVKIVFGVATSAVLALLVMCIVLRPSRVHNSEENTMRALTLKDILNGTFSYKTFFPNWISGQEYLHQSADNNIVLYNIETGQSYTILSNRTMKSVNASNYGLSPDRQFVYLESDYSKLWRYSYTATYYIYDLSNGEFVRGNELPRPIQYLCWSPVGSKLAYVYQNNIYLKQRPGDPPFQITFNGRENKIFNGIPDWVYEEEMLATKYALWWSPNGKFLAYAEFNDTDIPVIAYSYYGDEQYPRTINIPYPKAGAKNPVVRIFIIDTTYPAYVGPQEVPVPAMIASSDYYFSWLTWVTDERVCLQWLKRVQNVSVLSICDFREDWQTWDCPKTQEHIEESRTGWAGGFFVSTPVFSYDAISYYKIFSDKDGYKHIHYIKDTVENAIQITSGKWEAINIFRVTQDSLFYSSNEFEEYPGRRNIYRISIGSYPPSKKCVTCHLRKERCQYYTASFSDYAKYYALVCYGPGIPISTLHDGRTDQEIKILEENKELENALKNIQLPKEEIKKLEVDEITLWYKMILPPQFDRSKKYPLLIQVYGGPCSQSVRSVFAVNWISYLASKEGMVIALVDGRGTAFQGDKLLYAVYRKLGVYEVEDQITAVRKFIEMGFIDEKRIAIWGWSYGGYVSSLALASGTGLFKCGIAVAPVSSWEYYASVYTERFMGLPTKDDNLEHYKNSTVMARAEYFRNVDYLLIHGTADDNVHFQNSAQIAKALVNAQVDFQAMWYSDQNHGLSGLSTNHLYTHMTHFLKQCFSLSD

DPPIV = target: T3, DPPIV (Mus musculus, UniProt P28843); assay: DPPIV enzymatic activity in mouse plasma (H-Gly-Pro-AMC); format: biochemical, C57BL/6 mouse; details: H-Gly-Pro-AMC substrate
T3 construct: from tissue; host or cells: C57BL/6 mouse plasma (EDTA)
Protocol: Approximately 500 μL of whole blood from one C57BL/6 mouse was harvested into BD Microtainer® tubes (K2) EDTA (#365974, Becton Dickinson and Co.) via terminal cardiac puncture. The blood sample was immediately centrifuged at approximately 9000 g at 4° C. for 5 minutes. Plasma was separated and stored at −80° C. in aliquots of 300 μL. To assay baseline DPPIV enzymatic exopeptidase activity, 5 μL of thawed, mouse plasma was diluted (1:5) in buffer (100 mM Tris-HCl, 400 mM NaCl, 50 mM salicylic acid, 1 mM EDTA, pH 7.5) and mixed with 35 μL of the same buffer before being pre-incubated with different concentrations of 10 μL of test compounds or DMSO vehicle for 15 minutes at 37° C. in 96-well black plates (Nunc, #237108). After pre-incubation, 50 μL of 200 μM dipeptide substrate H-Gly-Pro-AMC (Bachem, # L-1225) was added to the mixture. The assay was performed for 1 hour at 37° C. 7-Amino-4-Methylcoumarin (AMC) release was detected measuring fluorescence at an excitation wavelength of 360 nm and an emission wavelength of 460 nm using a Multifunction Microplate Reader (Synergy 4, Biotek). All measurements were carried out at least in duplicate.

[3] = target: T4, recombinant human PREP (rhPREP) (Homo sapiens, UniProt P48147); assay: PREP enzymatic activity assay, Z-Gly-Pro-AMC; format: biochemical
T4 sequence (P48147 1-710): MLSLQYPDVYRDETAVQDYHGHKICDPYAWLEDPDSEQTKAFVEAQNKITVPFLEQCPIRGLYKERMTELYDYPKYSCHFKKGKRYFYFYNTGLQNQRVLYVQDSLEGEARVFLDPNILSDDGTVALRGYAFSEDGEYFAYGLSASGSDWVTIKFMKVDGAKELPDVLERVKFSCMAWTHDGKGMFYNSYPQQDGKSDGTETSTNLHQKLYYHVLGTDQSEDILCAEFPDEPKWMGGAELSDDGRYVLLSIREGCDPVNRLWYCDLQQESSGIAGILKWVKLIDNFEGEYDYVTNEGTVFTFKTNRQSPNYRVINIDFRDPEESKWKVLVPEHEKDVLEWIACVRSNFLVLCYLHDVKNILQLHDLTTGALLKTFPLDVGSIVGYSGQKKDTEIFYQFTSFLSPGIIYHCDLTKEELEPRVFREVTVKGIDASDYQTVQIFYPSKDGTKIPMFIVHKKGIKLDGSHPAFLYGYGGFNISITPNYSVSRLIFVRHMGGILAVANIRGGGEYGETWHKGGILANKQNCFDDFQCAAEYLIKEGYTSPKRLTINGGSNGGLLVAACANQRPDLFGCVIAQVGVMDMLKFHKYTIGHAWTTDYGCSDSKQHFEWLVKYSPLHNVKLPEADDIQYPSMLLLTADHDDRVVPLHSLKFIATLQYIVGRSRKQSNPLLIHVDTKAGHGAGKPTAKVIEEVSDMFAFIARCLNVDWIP

[4] = target: T5, recombinant human DPPIV (rhDPPIV) (Homo sapiens, UniProt P27487); assay: DPPIV enzymatic activity assay, H-Gly-Pro-pNA; format: biochemical
T5 construct: purchased R&S system (so in the source)

[5] = target: T1, recombinant human DPP9 (rhDPP9); assay: DPP9 inhibition assay, 10 ng rhDPP9, Tris-HCl/BSA buffer; format: biochemical; details: Table 3B
[6] = exopeptidase inhibition at 1 μM test compound, Table 2, read-out: rhFAPα (% exo inh @ 1 μM)
[7] = exopeptidase inhibition at 1 μM test compound, Table 3B, read-out: rhFAPα % exo inh @ 1 μM
[8] = exopeptidase, Table 2, read-out: rhFAPα (exo IC50)
[9] = exopeptidase, Table 3A, read-out: rhFAPα (exo IC50)
[10] = read-out: rhFAPα % exo inh @ 1 μM
[11] = read-out: rhFAPα (% exo inh @ 1 μM)

T3 sequence (P28843 37-760 limits assumed): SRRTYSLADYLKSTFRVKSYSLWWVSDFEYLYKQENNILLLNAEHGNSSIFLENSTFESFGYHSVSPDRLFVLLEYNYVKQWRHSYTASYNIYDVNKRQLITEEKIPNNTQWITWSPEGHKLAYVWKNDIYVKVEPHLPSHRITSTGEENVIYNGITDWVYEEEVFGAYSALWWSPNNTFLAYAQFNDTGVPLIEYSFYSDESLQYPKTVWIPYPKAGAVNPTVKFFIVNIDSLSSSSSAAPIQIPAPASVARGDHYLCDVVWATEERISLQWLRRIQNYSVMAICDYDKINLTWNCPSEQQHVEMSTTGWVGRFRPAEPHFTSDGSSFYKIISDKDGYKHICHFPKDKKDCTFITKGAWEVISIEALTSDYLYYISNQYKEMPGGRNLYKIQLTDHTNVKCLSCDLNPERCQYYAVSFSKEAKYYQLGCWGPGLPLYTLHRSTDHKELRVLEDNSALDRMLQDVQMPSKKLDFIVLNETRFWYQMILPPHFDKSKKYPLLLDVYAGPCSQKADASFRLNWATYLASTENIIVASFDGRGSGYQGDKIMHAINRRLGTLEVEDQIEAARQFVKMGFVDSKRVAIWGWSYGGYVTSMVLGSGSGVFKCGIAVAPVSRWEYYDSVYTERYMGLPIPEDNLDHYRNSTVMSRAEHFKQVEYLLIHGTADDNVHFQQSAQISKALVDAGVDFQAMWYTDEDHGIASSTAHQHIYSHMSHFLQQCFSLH
T1 sequence (Q86TI2 whole entry): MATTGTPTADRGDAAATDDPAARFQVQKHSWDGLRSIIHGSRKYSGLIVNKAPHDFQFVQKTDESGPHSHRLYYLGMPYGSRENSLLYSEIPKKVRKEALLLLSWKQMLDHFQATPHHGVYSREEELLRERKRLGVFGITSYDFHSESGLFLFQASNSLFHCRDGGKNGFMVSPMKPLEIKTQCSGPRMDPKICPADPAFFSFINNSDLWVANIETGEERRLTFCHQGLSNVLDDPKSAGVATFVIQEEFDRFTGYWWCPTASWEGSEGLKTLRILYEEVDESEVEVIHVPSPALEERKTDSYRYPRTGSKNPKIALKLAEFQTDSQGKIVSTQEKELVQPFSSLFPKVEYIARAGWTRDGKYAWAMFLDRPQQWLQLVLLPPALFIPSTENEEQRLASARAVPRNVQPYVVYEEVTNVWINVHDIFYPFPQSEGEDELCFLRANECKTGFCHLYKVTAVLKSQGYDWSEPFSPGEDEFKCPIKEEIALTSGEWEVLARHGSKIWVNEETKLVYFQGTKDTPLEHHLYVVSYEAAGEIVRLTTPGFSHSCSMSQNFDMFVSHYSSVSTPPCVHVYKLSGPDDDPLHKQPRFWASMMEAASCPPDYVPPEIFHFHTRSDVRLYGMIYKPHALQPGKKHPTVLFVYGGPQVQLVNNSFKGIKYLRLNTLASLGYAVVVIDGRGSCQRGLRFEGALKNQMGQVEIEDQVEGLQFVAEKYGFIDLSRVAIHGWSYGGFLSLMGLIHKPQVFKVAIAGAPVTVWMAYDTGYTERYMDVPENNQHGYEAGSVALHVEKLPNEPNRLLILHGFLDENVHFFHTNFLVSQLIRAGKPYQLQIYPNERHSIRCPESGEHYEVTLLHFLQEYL
T5 sequence (P27487 whole entry): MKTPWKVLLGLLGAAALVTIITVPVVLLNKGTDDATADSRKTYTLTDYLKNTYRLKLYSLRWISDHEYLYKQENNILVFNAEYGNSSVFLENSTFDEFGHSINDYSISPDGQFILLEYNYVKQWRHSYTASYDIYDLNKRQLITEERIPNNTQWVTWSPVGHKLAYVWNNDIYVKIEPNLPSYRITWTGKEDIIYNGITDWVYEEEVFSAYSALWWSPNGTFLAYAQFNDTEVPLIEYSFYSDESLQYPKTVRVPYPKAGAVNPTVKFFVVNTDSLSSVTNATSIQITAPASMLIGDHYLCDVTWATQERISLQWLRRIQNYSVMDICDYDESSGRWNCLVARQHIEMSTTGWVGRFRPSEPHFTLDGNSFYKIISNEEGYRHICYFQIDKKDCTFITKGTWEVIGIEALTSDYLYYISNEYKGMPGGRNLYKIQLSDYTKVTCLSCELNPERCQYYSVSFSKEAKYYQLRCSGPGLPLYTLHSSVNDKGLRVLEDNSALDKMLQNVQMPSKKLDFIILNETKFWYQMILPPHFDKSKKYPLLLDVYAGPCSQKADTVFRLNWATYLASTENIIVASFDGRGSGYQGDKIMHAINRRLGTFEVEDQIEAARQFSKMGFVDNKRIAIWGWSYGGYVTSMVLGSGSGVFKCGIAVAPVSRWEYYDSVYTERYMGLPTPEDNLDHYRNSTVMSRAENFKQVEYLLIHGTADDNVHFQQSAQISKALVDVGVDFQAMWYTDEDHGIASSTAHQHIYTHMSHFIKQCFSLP

Row | SMILES | IC50 [1] [µM] | IC50 ([2]; Table 3B, read-out: rhFAP IC50) [µM] | inhibition at 1 µM [2, 6] [%] | inhibition at 1 µM [2, 7] [%] | IC50 [2, 8] [µM] | IC50 [2, 9] [µM] | IC50 (DPPIV) [µM] | IC50 ([3]; Table 3A) [µM] | IC50 ([3]; Table 3B) [µM] | IC50 ([4]; Table 3A) [µM] | IC50 ([4]; Table 3B) [µM] | IC50 [5] [µM] | inhibition at 1 µM [2, 10] [%] | inhibition at 1 µM [2, 11] [%]
1 | COc1ccc(C(=O)Nc2cnccc2C(=O)NCC(=O)N2CC(F)(F)C[C@H]2C#N)cc1 [Compound 3, (S)—N-(2-(2-cyano-4,4-difluoropyrrolidin-1-yl)-2-oxoethyl)-3-(4-methoxybenzamido)isonicotinamide] | 1 to 10 | < 1 |  |  | < 1 | < 1 | 1 to 10 | > 10 | > 10 | 1 to 10 | 1 to 10 | 1 to 10 | > 50 | > 50
2 | N#C[C@@H]1CC(F)(F)CN1C(=O)CNC(=O)c1ccncc1NC(=O)COc1ccc(Cl)c(F)c1 [Compound 5, (S)-3-(2-(4-chloro-3-fluorophenoxy)acetamido)-N-(2-(2-cyano-4,4-difluoropyrrolidin-1-yl)-2-oxoethyl)isonicotinamide] | 1 to 10 | < 1 | > 50 | > 50 | < 1 | < 1 | < 1 | > 10 | > 10 | 1 to 10 | 1 to 10 | 1 to 10 |  | 
3 | N#C[C@@H]1CC(F)(F)CN1C(=O)CNC(=O)c1ccncc1/C=C/c1ccc(Cl)cc1 [Compound 9, (S,E)-3-(4-chlorostyryl)-N-(2-(2-cyano-4,4-difluoropyrrolidin-1-yl)-2-oxoethyl)isonicotinamide] | < 1 | < 1 |  |  | < 1 | < 1 | < 10 | > 10 | > 10 | > 10 | > 10 | < 1 | > 50 | > 50

Continued, in another order:

Row | IC50 [1] [µM] | IC50 ([2]; Table 3B, read-out: rhFAP IC50) [µM] | inhibition at 1 µM [2, 6] [%] | inhibition at 1 µM [2, 7] [%] | IC50 [2, 8] [µM] | IC50 [2, 9] [µM] | IC50 (DPPIV) [µM] | IC50 ([3]; Table 3A) [µM] | IC50 ([3]; Table 3B) [µM] | IC50 ([4]; Table 3A) [µM] | IC50 ([4]; Table 3B) [µM] | IC50 [5] [µM] | SMILES | inhibition at 1 µM [2, 10] [%] | inhibition at 1 µM [2, 11] [%]
4 | > 10 | < 1 | > 50 | > 50 | < 1 | < 1 | < 10 | > 10 | > 10 | > 10 | > 10 | > 10 | N#C[C@@H]1CC(F)(F)CN1C(=O)CNC(=O)c1ccncc1NCc1ccc(F)cc1 [Compound 2, (S)—N-(2-(2-cyano-4,4-difluoropyrrolidin-1-yl)-2-oxoethyl)-3-((4-fluorobenzyl)amino)isonicotinamide] |  | 
5 | 1 to 10 | < 1 | > 50 | > 50 | < 1 | < 1 | < 10 | 1 to 10 | 1 to 10 | > 10 | > 10 | 1 to 10 | N#C[C@@H]1CC(F)(F)CN1C(=O)CNC(=O)c1ccncc1Cc1ccccc1F [Compound 7, (S)—N-(2-(2-cyano-4,4-difluoropyrrolidin-1-yl)-2-oxoethyl)-3-(2-fluorobenzyl)isonicotinamide] |  | 
6 | 1 to 10 | < 1 | > 50 | > 50 | < 1 | < 1 | < 10 | > 10 | > 10 | > 10 | > 10 | 1 to 10 | N#C[C@@H]1CC(F)(F)CN1C(=O)CNC(=O)c1ccncc1Cc1ccc(F)cc1 [Compound 8, (S)—N-(2-(2-cyano-4,4-difluoropyrrolidin-1-yl)-2-oxoethyl)-3-(4-fluorobenzyl)isonicotinamide] |  | 
